Key:
HCT116 cells = experiment: Whole cell cytotoxicity assay, Sulforhodamine B; type: cell-based; conditions: Homo sapiens, HCT-116, HCT116, 96 hours incubation, SRB; for IC50: read-out: IC50 values in this assay (HCT116 cell growth)
Procedure: Human tumor-derived cell lines, HCT116 or MCF7 (ATCC) were plated in a 96 well plate in DMEM containing 10% fetal bovine serum and 2 mM L-glutamine at a density of 500 HCT116 cells or 1,000 MCF7 cells per well and incubated at 37° C., 5% CO2, for 24 hours prior to the addition of experimental compounds. Compounds were added using the dilution series indicated to duplicate plates and the cells were incubated in media plus compound for 96 hours. An additional plate was fixed in 10% TCA at the time of the addition of compound to provide a measurement of the cell population at time zero, the time of drug addition. Following the 96 hour incubation, cells were fixed in situ by gently aspirating off the culture media and then adding 50 ul of ice cold 10% TCA per well and incubation at 4° C. for 60 minutes. The plates were washed with tap water five times and allowed to air dry for 5 minute. 50 ul of a 0.4% (w/v) Sulforhodamine B solution in 1% (v/v) acetic acid was added per well and the cells were incubated for 30 minutes at room temperature. Following staining, plates were washed four times with 1% acetic acid to remove any unbound dye and then allowed to air dry for 5 minutes. The stain was solubilized with 100 ul of 10 mM Tris pH 10.5 per well and placed on an orbital rotator for 5 minutes. The absorbance was read at 570 nm. Percentage growth was calculated using the absorbance readings from the time zero plate (Tz) and the dilution series plate […] which included a column of cells grown in media without compound as a control (C) using the formulas:
[(Ti−Tz)/(C−Tz)]×100 for concentrations for which Ti>/=Tz
[(Ti−Tz)/Tz]×100 for concentrations for which Ti<Tz.
Three dose response parameters were calculated for each experimental agent. Growth inhibition of 50% (GI50) was calculated from [(Ti−Tz)/(C−Tz)]×100=50, which was the drug concentration resulting in a 50% reduction in the net protein increase (as measured by SRB staining) in control cells during the drug incubation. The drug concentration resulting in total growth inhibition (TGI) was calculated from Ti=Tz. The LC50 (concentration of drug resulting in a 50% reduction in the measured protein at the end of the drug treatment as compared to that at the beginning) indicating a net loss of cells following treatment ws calculated from [(Ti−Tz)/Tz]×100=−50. Values are calculated for each of these three parameters if the level of activity was reached; however, if the effect was not reached or was exceeded, the value for that parameter is expressed as greater or less than the maximum or minimum concentration tested.

[1] = molecular target: T1, N-terminal His-tagged human Src (Homo sapiens, UniProt P12931); experiment: Src kinase inhibition assay (33P-ATP filter assay); type: biochemical
T1 construct: His (N); purchased Upstate USA Inc, 706 Forest Street, Charlottesville, Va

[2] = molecular target: T2, N-terminal His6-tagged recombinant human KDR, residues 790-end (Homo sapiens, UniProt P35968); experiment: KDR kinase inhibition assay (33P-ATP filter assay); type: biochemical
T2 construct: recombinant human KDR, residues 790-end; His6 (N); purchased Upstate USA Inc, 706 Forest Street, Charlottesville, Va
Summary of the method: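 Radiometric filter assay: reaction started with Mg acetate (10 mM)/[γ-33P]ATP mix, run 40 min at room temperature in 8 mM MOPS pH 7.0 with 0.2 mM EDTA, MBP substrate (0.33 mg/mL) and recombinant KDR 790-end (5-10 mU). Phosphate incorporation by scintillation counting of P30 filtermats, compared with uninhibited reactions.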

recombinant Aurora A = molecular target: T3, recombinant Aurora A (Homo sapiens, UniProt O14965); experiment: Aurora A (Aurora 2) inhibition assay, Z'-Lyte kinase assay; type: biochemical; conditions: ATP 10 μM, 1 h
T3 construct: purchased Upstate, Lake Placid, N.Y
T3 sequence (O14965 1-403): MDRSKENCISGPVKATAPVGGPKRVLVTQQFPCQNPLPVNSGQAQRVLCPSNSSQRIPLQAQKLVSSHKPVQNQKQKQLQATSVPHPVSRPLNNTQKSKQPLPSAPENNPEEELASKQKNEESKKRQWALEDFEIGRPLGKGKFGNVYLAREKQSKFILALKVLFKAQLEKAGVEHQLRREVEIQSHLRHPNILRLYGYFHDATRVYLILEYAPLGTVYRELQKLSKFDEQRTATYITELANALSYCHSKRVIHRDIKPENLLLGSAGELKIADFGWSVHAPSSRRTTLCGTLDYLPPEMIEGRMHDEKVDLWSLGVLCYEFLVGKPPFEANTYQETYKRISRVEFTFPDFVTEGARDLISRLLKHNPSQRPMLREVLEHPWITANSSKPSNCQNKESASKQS
Procedure: Compounds were tested for their potency against recombinant Aurora A (Upstate, Lake Placid, N.Y.) using the PanVera Z′-Lyte kinase assay kit—Ser/Thr 1 peptide (Invitrogen, Carlsbad, Calif.). Assays were carried out in kinase assay buffer (50 mM HEPES, pH 7.5, 10 mM MgCl2, 5 mM EGTA, 0.05% Brij-35, 2 mM DTT). Test compounds were initially dissolved in DMSO at 100× the highest tested concentration, then serially diluted to 4× test concentrations in kinase assay buffer. Next, Aurora A (final concentration 200-500 ng/mL), Z′-Lyte Ser/Thr 1 peptide (final concentration 2 μM) and ATP (final concentration 10 μM) were added according to the manufacturer's instructions. Assays were carried out in half-area 96-well white polystyrene assay plates (Corning, Corning, N.Y.) in a final volume of 20 μl. The reaction was allowed to proceed for 1 h at room temperature in the dark, at which point the development reagent and stop reagent were added according to the manufacturer's instructions. Coumarin (Ex. 400 nm, Em. 465 nm) and fluorescein (Ex. 400 nm, Em. 565 nm) fluorescence values were measured on a SpectraFluor Plus plate reader (Tecan, Durham, N.C.). The emission ratio (coumarin/fluorescein) was determined and used to calculate the percent phosphorylation for each well. Wells containing substrate but no kinase and wells containing a phosphopeptide control were used to set 0% and 100% phosphorylation values, respectively. Typically 20-40% of the substrate was phosphorylated in wells without inhibitor. Dose-response curves of relative Aurora A activity vs. inhibitor concentration were plotted with Grafit (Erithacus Software, Horley, Surrey, UK).

[3] = group with IC50 greater than 100 nM

T1 sequence (P12931 whole entry): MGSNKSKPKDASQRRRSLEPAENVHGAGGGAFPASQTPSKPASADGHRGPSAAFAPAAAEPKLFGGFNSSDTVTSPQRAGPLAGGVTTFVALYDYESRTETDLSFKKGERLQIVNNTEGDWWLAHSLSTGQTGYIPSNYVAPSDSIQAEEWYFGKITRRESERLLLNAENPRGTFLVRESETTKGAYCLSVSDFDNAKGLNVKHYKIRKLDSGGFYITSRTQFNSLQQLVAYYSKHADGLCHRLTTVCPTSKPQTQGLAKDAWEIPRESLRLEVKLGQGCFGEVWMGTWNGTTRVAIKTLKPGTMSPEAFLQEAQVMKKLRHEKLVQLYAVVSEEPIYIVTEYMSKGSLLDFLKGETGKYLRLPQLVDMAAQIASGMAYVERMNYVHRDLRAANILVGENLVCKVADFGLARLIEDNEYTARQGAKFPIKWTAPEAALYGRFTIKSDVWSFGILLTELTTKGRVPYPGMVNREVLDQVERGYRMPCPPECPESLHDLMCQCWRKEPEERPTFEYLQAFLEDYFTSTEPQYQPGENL
T2 sequence (P35968 790-1356 limits assumed): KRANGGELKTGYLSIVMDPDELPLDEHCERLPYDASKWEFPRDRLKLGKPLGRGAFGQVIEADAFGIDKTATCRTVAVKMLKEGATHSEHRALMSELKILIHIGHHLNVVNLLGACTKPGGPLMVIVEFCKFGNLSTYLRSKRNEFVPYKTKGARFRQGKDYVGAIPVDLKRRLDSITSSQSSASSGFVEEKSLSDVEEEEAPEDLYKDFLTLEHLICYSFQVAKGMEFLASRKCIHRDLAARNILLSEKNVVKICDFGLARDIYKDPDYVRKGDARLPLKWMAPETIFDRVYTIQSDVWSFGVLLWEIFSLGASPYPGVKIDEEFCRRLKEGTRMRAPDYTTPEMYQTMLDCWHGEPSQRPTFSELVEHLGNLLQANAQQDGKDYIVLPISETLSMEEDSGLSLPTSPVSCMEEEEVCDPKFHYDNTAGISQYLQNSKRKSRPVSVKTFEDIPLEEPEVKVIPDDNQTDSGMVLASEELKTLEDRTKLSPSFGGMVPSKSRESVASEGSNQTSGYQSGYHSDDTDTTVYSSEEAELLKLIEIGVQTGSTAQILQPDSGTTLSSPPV

| IC50 [1, 3] [µM] | IC50 [2, 3] [µM] | IC50 (recombinant Aurora A) [µM] | IC50 ([1]; 40 minutes at room temperature) [µM] | IC50 ([2]; 40 minutes at room temperature) [µM] | IC50 (recombinant Aurora A; [3]) [µM] | SMILES | IC50 (HCT116 cells) [µM] | GI50 (HCT116 cells; read-out: GI50 HCT116 cell growth) [µM] |
| --- | --- | --- | --- | --- | --- | --- | --- | --- |
| ≤ 1 | ≤ 1 | ≤ 0.1 | – | – | – | Cc1cc(Nc2cc(NC3CCOCC3)nc(-c3cccc(Cl)c3)n2)n[nH]1 [Compound 23, 2-(3-chlorophenyl)-N^4-(5-methyl-1H-pyrazol-3-yl)-N^6-(tetrahydro-2H-pyran-4-yl)pyrimidine-4,6-diamine] | 1 to 10 | – |
| – | ≤ 1 | ≤ 0.1 | ≤ 0.1 | – | – | COc1ccc(-c2nc(Nc3cc(C)[nH]n3)cc(NC3CCOCC3)n2)cc1 [Compound 28, 2-(4-methoxyphenyl)-N^4-(5-methyl-1H-pyrazol-3-yl)-N^6-(tetrahydro-2H-pyran-4-yl)pyrimidine-4,6-diamine] | 1 to 10 | – |
| – | – | ≤ 0.1 | ≤ 0.1 | ≤ 0.1 | – | Cc1cc(Nc2cc(N3CCN(C)CC3)nc(-c3ccccc3F)n2)n[nH]1 [Compound 34, 2-(2-fluorophenyl)-N-(5-methyl-1H-pyrazol-3-yl)-6-(4-methylpiperazin-1-yl)pyrimidin-4-amine] | 1 to 10 | – |
| – | – | – | ≤ 0.1 | ≤ 0.1 | ≤ 1 | Cc1cc(Nc2cc(N3CCN(C)CC3)nc(-c3ccc(F)cc3F)n2)n[nH]1 [Example 172, 2-(2,4-difluorophenyl)-N-(5-methyl-1H-pyrazol-3-yl)-6-(4-methylpiperazin-1-yl)pyrimidin-4-amine] | – | ≤ 1 |

Source: US20090029992A1, “SUBSTITUTED PYRAZOLE COMPOUNDS” (priority 2007, published 2009)
